Data from patent publication US7858647B2, “N-[1,3,4]-thiadiazol-2-yl-benzene sulfonamides, pharmaceutical compositions thereof and methods for their therapeutic use” (Sanofi-Aventis, priority 2005, dated 2010).

Target: T1, human PPARgamma (Homo sapiens, UniProt P37231)
T1 construct: amino acids I152-Y475; expressed in transfected cells; host or cells: HEK cells (transient transfection of pcDNA3-GAL4-humanPPARgammaLBD)
T1 sequence (P37231 182-477 isoform P37231-2 limits assumed): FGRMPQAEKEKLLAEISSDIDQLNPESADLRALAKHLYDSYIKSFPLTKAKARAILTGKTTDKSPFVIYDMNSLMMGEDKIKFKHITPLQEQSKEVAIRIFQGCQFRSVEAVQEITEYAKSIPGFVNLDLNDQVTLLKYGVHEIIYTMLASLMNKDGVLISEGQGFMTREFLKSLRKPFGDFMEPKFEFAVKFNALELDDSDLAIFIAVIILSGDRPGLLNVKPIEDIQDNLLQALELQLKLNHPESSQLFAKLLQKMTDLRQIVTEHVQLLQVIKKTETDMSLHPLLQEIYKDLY
Test: Cellular PPARgamma assay (luciferase reporter, transiently transfected HEK cells)
Assay type: cell-based
Conditions: GAL4-humanPPARgammaLBD
Text: A transient transfection system is employed to determine the cellular PPARgamma activity of PPAR agonists. It is based on the use of a luciferase reporter plasmid (pGL3basic-5×GAL4-TK) and of a PPARgamma expression plasmid (pcDNA3-GAL4-humanPPARgammaLBD). Both plasmids are transiently transfected into human embryonic kidney cells (HEK cells). There is then expression in these cells of the fusion protein GAL4-humanPPARgammaLBD which binds to the GAL4 binding sites of the reporter plasmid. In the presence of a PPARgamma-active ligand, the activated fusion protein GAL4-humanPPARgammaLBD induces expression of the luciferase reporter gene, which can be detected in the form of a chemiluminescence signal after addition of a luciferase substrate. As a difference from the stably transfected PPARalpha reporter cell line, in the cellular PPARgamma assay the two components (luciferase reporter plasmid and PPARgamma expression plasmid) are transiently transfected into HEK cells because stable and permanent expression of the PPARgamma fusion protein is cytotoxic.
The luciferase reporter plasmid pGL3basic-5×GAL4-TK is based on the vector pGL3basic from Promega. The reporter plasmid is prepared by cloning five binding sites of the yeast transcription factor GAL4 (each binding site with the sequence 5′-CTCGGAGGACAGTACTCCG-3′), together with a 160 bp-long thymidine kinase promoter section (Genbank Accession #AF027128) 5′-upstream into pGL3basic. 3′-downstream of the thymidine kinase promoter is the complete luciferase gene from Photinus pyralis (Genbank Accession #M15077) which is already a constituent of the plasmid pGL3basic used. The cloning and sequencing of the reporter plasmid pGL3basic-5×GAL4-TK took place in analogy to the description in Sambrook J. et. al. (Molecular cloning, Cold Spring Harbor Laboratory Press, 1989).
The PPARgamma expression plasmid pcDNA3-GAL4-humanPPARgammaLBD was prepared by first cloning the cDNA coding for amino acids 1-147 of the yeast transcription factor GAL4 (Genbank Accession #P04386) into the plasmid pcDNA3 (from Invitrogen) 3′-downstream of the cytomegalovirus promoter. Subsequently, the cDNA of the ligand-binding domain (LBD) of the human PPARgamma receptor (amino acids I152-Y475; Accession #g1480099) 3′-downstream of the GAL4 DNA binding domain. Cloning and sequencing of the PPARgamma expression plasmid pcDNA3-GAL4-humanPPARgammaLBD again took place in analogy to the description in Sambrook J. et. al. (Molecular cloning, Cold Spring Harbor Laboratory Press, 1989). Besides the luciferase reporter plasmid pGL3basic-5×GAL4-TK and the PPARgamma expression plasmid pcDNA3-GAL4-humanPPARgammaLBD, also used for the cellular PPARgamma assay are the reference plasmid pRL-CMV (from Promega) and the plasmid pBluescript SK(+) from Stratagene. All four plasmids were prepared using a plasmid preparation kit from Qiagen, which ensured a plasmid quality with a minimal endotoxin content, before transfection into HEK cells.
The activity of PPARgamma agonists is determined in a 4-day assay which is described below. Before the transfection, HEK cells are cultivated in DMEM (#41965-039, Invitrogen) which is mixed with the following additions: 10% FCS (#16000-044, Invitrogen), 1% penicillin-streptomycin solution (#15140-122, Invitrogen) and 2 mM L-glutamine (#25030-024, Invitrogen).
Firstly, solution A, a transfection mixture which contains all four plasmids previously described in addition to DMEM, is prepared. The following amounts are used to make up 3 ml of solution A for each 96 well microtiter plate for an assay: 2622 μl of antibiotic- and serum-free DMEM (#41965-039, Invitrogen), 100 μl of reference plasmid pRL-CMV (1 ng/μl), 100 μl of luciferase reporter plasmid pGL3basic-5×GAL4-TK (10 ng/μl), 100 μl of PPARgamma expression plasmid pcDNA3-GAL4-humanPPARgammaLBD (100 ng/μl) and 78 μl of plasmid pBluescript SK(+) (500 ng/μl). […]

In order of falling EC50:
1. Cc1ccc(Cl)cc1C(=O)NCCc1ccc(S(=O)(=O)Nc2nnc(-c3ccccc3)s2)cc1 [Example 32, 5-Chloro-2-methyl-N-{2-[4-(5-phenyl-[1,3,4]thiadiazol-2-ylsulfamoyl)-phenyl]-ethyl}-benzamide]  4.87 µM
2. Cc1cc(Br)c(C(=O)NCCc2ccc(S(=O)(=O)Nc3nnc(C(C)C)s3)cc2)s1 [Example 47, 3-Bromo-5-methyl-thiophene-2-carboxylic acid {2-[4-(5-isopropyl-[1,3,4]thiadiazol-2-ylsulfamoyl)-phenyl]-ethyl}-amide]  1.87 µM
3. CC(C)c1nnc(NS(=O)(=O)c2ccc(CNC(=O)c3ccc(C(F)(F)F)cc3)cc2)s1 [Example 24, N-[4-(5-Isopropyl-[1,3,4]thiadiazol-2-ylsulfamoyl)-benzyl]-4-trifluoromethyl-benzamide]  1.53 µM
4. COc1ccc(C(=O)NCCc2ccc(S(=O)(=O)Nc3nnc(C(C)C)s3)cc2)c(OC)n1 [Example 5, N-{2-[4-(5-Isopropyl-[1,3,4]thiadiazol-2-ylsulfamoyl)-phenyl]-ethyl}-2,6-dimethoxy-nicotinamide]  1.11 µM
5. COc1cc(C(F)(F)F)ccc1C(=O)NCCc1ccc(S(=O)(=O)Nc2nnc(C(C)C)s2)cc1 [Example 1, N-{2-[4-(5-Isopropyl-[1,3,4]thiadiazol-2-ylsulfamoyl)-phenyl]-ethyl}-2-methoxy-4-trifluoromethyl-benzamide]  0.38 µM
6. CC(C)(C)c1nnc(NS(=O)(=O)c2ccc(CCNC(=O)c3cc(Cl)ccc3Cl)cc2)s1 [Example 35, N-{2-[4-(5-tert-Butyl-[1,3,4]thiadiazol-2-ylsulfamoyl)-phenyl]-ethyl}-2,5-dichloro-benzamide]  0.27 µM
7. COc1ccc(C(C)(C)C)cc1C(=O)NCCc1ccc(S(=O)(=O)Nc2nnc(C(C)C)s2)cc1 [Example 2, 5-tert-Butyl-N-{2-[4-(5-isopropyl-[1,3,4]thiadiazol-2-ylsulfamoyl)-phenyl]-ethyl}-2-methoxy-benzamide]  0.18 µM
8. CCOc1cc(C(F)(F)F)ccc1C(=O)NCC(C)c1ccc(S(=O)(=O)Nc2nnc(C(C)C)s2)cc1 (racemic) [Example 43, 2-Ethoxy-N-{2-[4-(5-isopropyl-[1,3,4]thiadiazol-2-ylsulfamoyl)-phenyl]-propyl}-4-trifluoromethyl-benzamide]  0.09 µM
9. CCOc1cc(C(F)(F)F)ccc1C(=O)NCC(C)c1ccc(S(=O)(=O)Nc2nnc(C(C)C)s2)cc1 (single isomer, unassigned) [Example 43a]  0.07 µM
10. CCOc1cc(C(F)(F)F)ccc1C(=O)NCC(C)c1ccc(S(=O)(=O)Nc2nnc(C(C)C)s2)cc1 (single isomer, unassigned) [Example 43b]  0.07 µM
11. CCOc1cc(C(F)(F)F)ccc1C(=O)NCC(CC)c1ccc(S(=O)(=O)Nc2nnc(C(C)C)s2)cc1 (single isomer, unassigned) [Example 44a]  0.03 µM
12. CCOc1cc(C(F)(F)F)ccc1C(=O)NCC(CC)c1ccc(S(=O)(=O)Nc2nnc(C(C)C)s2)cc1 (single isomer, unassigned) [Example 44b]  0.01 µM
